Measurements taken from patent publication US20230212180A1, “SUBSTITUTED PYRAZINE COMPOUND, PHARMACEUTICAL COMPOSITION COMPRISING SAME, AND USE THEREOF” (Sichuan Kelun-Biotech Biopharmaceutical Co., Ltd., priority 2020, published 2023).
Like-named read-outs stand apart in the source and are kept apart here.

How the values were obtained:
[1] = Pharmacokinetic (PK) studies in Balb/c mouse; format: in vivo; settings: for AUC(0-t): read-out: AUClast; for half-life: read-out: T1/2 (converted)
Description: Test Example 7: Pharmacokinetic (PK) Studies in Balb/c Mouse
The compound of Example 12, Control Compound 1, Control Compound 2, and TNO-155 were administered to female Balb/c mice by intravenous injection (IV) and gavage (PO) respectively to estimate the pharmacokinetic properties. Dosing amounts for IV and PO routes were 1 mg/kg and 10 mg/kg, respectively. The solvent for IV route was 5% DMSO+5% Solutol+90% Saline, and the solvent for PO route was 0.5% MC (sodium methylcellulose). Blood was collected at various time points after IV and PO administration. The blood from the test groups of the compound of Example 12, Control Compound 1, and Control Compound 2 was anticoagulated using EDTA.K2 and preserved at −80° C. The blood from the test groups of TNO-155 was anticoagulated using EDTA.K2 and centrifuged to obtain plasma samples, and the plasma samples were preserved at −80° C.
The blood or plasma samples were subjected to protein precipitation and then to the LC-MS/MS analysis. WinNonlin 6.3 software was used to calculate the pharmacokinetic parameters by non-compartmental model, and the results were listed in Table 7 below.

[2] = target: T1, CYP2D6 (Homo sapiens, UniProt P10635); experiment: Biochemical assay for CYP enzyme inhibition, P450-Glo CYP2D6 Screening System; format: in vitro ADME
T1 construct: purchased Promega
T1 sequence (P10635 whole entry): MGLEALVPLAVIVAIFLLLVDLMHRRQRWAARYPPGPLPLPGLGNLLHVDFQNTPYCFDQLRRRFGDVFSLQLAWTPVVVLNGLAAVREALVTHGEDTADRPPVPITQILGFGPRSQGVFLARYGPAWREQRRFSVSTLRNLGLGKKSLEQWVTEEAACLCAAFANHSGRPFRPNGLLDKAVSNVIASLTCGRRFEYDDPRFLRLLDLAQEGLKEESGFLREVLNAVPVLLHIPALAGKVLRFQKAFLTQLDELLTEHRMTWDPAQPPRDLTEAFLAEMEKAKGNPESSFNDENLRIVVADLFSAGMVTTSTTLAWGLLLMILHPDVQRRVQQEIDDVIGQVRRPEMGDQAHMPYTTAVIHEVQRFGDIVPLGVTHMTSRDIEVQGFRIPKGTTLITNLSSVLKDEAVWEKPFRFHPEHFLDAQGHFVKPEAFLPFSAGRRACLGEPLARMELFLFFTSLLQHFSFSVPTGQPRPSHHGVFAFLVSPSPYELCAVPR
Description: Test Example 5: Biochemical Assay for CYP Enzyme (Cytochrome P450) Inhibition
P450-Glo™ CYP2D6 Screening System, (Promega);
BMG PHERAstar FS Luminescent.
The experiments were carried out separately according to the instructions of the kits. The steps were as follows:
3.2. Inhibition Against CYP2D6:
Test group: The test compounds at different concentrations were added into a microplate, and Luciferin-ME EGE (3 μM), K3PO4 (100 mM), and CYP2D6 (5 nM) were added into each well, and pre-incubated at room temperature for 10 min. Thereafter, an NADPH regeneration system was added. The mixture was reacted at 37° C. for 30 min. Finally, an equal volume of detection buffer was added and incubated at room temperature for 20 min, followed by chemiluminescence detection.
Negative control group: The experimental method for the negative control group was the same as that for the test group, except that the test compound was not added.
Blank control group: The experimental method for the blank control group was the same as that for the test group, except that the test compound was not added and that CYP2D6 was replaced with CYP2D6 Membrance (5 nM).
Percentage inhibition=(1−(the chemiluminescent signal value of the test compound group at a certain test concentration−the chemiluminescent signal value of the blank control group)/(the chemiluminescent signal value of the negative control group−the chemiluminescent signal value of the blank control group))×100%.
When the percentage inhibition was between 30% and 80%, a single value or a value range of the half maximal inhibitory concentration (IC50) of the compound against the CYP enzyme was estimated based on the following equation: IC50=X×(1−percentage inhibition)/percentage inhibition, wherein X was the test concentration of the compound.

[3] = target: T2, recombinant full-length human PTPN11 (SHP2) (Homo sapiens, UniProt Q06124); experiment: Inhibition of in vitro enzyme activity of SHP2 (DiFMUP fluorescence endpoint assay); format: biochemical; settings: SHP2 0.5 nM, DiFMUP 200 μM, IRS-1 0.5 μM; 60 min incubation
T2 construct: recombinant full-length human PTPN11 (SHP2), active (SignalChem); purchased SignalChem
T2 sequence (Q06124 1-593): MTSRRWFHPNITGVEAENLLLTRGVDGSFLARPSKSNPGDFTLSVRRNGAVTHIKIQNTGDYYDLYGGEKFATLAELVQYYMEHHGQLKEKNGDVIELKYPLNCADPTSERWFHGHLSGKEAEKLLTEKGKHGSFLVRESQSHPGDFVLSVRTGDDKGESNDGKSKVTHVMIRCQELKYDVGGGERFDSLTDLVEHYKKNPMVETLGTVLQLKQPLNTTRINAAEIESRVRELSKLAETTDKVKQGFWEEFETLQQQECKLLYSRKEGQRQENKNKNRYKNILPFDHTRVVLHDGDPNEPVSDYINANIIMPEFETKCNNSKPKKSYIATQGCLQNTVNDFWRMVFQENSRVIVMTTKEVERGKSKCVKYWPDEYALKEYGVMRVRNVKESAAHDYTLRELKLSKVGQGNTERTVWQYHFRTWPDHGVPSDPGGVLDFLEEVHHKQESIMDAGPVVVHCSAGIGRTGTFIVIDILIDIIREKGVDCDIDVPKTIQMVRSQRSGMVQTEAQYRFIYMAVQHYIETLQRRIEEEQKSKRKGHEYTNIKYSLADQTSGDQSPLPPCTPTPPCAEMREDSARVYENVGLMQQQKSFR
In short: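 Full-length human SHP2 (0.5 nM) with 0.5 μM IRS1 bis-phosphopeptide preincubated with compound 60 min at room temperature, pH 7.2 HEPES with 5 mM DTT. DiFMUP (200 μM) reacted 30 min, stopped with bpv, fluorescence ex 340/em 450 nm. IC50 by four-parameter logistic fit.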

[4] = mouse, whole blood (TNO-155: plasma), female Balb/c mice, PO, 10 mg/kg, blood (TNO-155: plasma)
[5] = mouse, in vivo, female Balb/c mice, PO, 10 mg/kg, blood (TNO-155: plasma)
[6] = estimated from percentage inhibition, read-out: IC50 (μM) CYP2D6

## C[C@@H]1OCC2(CCN(c3cnc(Sc4ccnc(N)c4Cl)c(N)n3)CC2)[C@@H]1N [TNO-155, reference compound]
[1]; female Balb/c mice, IV, 1 mg/kg, blood (TNO-155: plasma)
  Cl: 24 mL/min/kg
[1]; mouse, whole blood (TNO-155: plasma), female Balb/c mice, IV, 1 mg/kg, blood (TNO-155: plasma)
  AUC(0-t): 672 ng·h/mL
[1]; [4]
  AUC(0-t): 7910 ng·h/mL
  half-life: 1.69 h

## C[C@@H]1OCC2(CCN(c3ncc(Sc4ccnc(N5CC(C(C)(C)O)C5)c4Cl)nc3CO)CC2)[C@@H]1N [Example 12, 2-(1-(4-(5-((3S,4S)-4-amino-3-methyl-2-oxa-8-azaspiro[4.5]decan-8-yl)-6-(hydroxymethyl)pyrazin-2-ylthio)-3-chloropyridin-2-yl)azetidin-3-yl)propan-2-ol]
[2]
  IC50: > 10 µM
[3]
  IC50: 2.5 nM
[1]; Balb/c mice, 1 mg/kg by injection and 10 mg/Kg by mouth
  pharmacokinetic properties (in words): excellent pharmacokinetic properties
[1]; mouse, in vivo, female Balb/c mice, IV, 1 mg/kg, blood (TNO-155: plasma)
  AUC(0-t): 2590 ng·h/mL
[1]; mouse, in vivo, female Balb/c mice, IV, 1 mg/kg, blood (TNO-155: plasma), read-out: Cl
  clearance: 6.23 mL/min/kg
[1]; [5]
  AUC(0-t): 12300 ng·h/mL
  half-life: 7.13 h

## CC(O)C1CN(c2nccc(Sc3cnc(N4CCC5(CC4)CO[C@@H](C)[C@H]5N)c(CO)n3)c2Cl)C1 (stereo partly drawn) [Example 17, 1-(1-(4-(5-((3S,4S)-4-amino-3-methyl-2-oxa-8-azaspiro[4.5]decan-8-yl)-6-(hydroxymethyl)pyrazin-2-ylthio)-3-chloropyridin-2-yl)azetidin-3-yl)ethan-1-ol]
[2]
  IC50: > 10 µM
[3]
  IC50: 2.5 nM

## C[C@@H]1OCC2(CCN(c3ncc(Sc4ccnc(N5CC(CO)(CF)C5)c4Cl)nc3CO)CC2)[C@@H]1N [Example 42, (3-((3S,4S)-4-amino-3-methyl-2-oxa-8-azaspiro[4.5]decan-8-yl)-6-(3-chloro-2-(3-(fluoromethyl)-3-(hydroxymethyl)azetidin-1-yl)pyridin-4-ylthio)pyrazin-2-yl)methanol]
[2]; [6]
  IC50: > 10 µM
[3]
  IC50: 10.2 nM

## C[C@@H]1OCC2(CCN(c3ncc(Sc4ccnc(N5CCCC5CC(N)=O)c4Cl)nc3CO)CC2)[C@@H]1N (stereo partly drawn) [Example 19, 2-(1-(4-(5-((3S,4S)-4-amino-3-methyl-2-oxa-8-azaspiro[4.5]decan-8-yl)-6-(hydroxymethyl)pyrazin-2-ylthio)-3-chloropyridin-2-yl)pyrrolidin-2-yl)acetamide]
[2]; [6]
  IC50: > 10 µM
[3]
  IC50: 1.5 nM

## C[C@@H]1OCC2(CCN(c3ncc(Sc4ccnc(N5CC(C)(CO)C5)c4Cl)nc3CO)CC2)[C@@H]1N [Example 27, (3-((3S,4S)-4-amino-3-methyl-2-oxa-8-azaspiro[4.5]decan-8-yl)-6-(3-chloro-2-(3-(hydroxymethyl)-3-methylazetidin-1-yl)pyridin-4-ylthio)pyrazin-2-yl)methanol]
[2]
  IC50: > 10 µM
[3]
  IC50: 4.1 nM
